Tests used:
[1] = Safety test in human volunteers; type: in vivo; conditions: clinically prescribed doses
From the text: Methyl pyruvate performs as a lipophilic antisense-like bullet that penetrates cell membranes, mitochondrial membranes and nuclear membranes with its active and passive delivery of energy via protons, adenosine triphosphate manufacture (ATP) and methylation. This energy delivering metabolic bullet upregulates all cytosolic and nuclear capabilities. It can even negate messenger RNA (mRNA) expression. Now, because of instant protons and pyruvate delivered, there is immediately empowered glycolysis and/or CAC production of ATP and the cell functions with more efficient performance. Through this newly available energy, gene silencing can be reversed, repairs completed, apoptosis performed, and the cell is upgraded and/or divides (cell partitioning) into a new and improved cell having shed its prior oxidative cellular/genetic debris. In DM this means improved Glut4 networking, improved insulin sensitivity, increased intra and intercellular networking and increased superoxide dismutase (SOD) production. Further, due to MP, many nutrients and complicit molecules including peroxisome proliferator-activator receptor (Ppars) will now function more effectively and efficiently, i.e. as infused and increased cellular energy can now affect niacinamide (B3) and nicotinamide adenine dinucleotide (NAD) at an intracellular level that enables and protects beta cell function. […]

HbA1c = assay: Twelve patients with DM took MP for three months; HbA1c measured; type: in vivo, human
From the text: Twelve patients with DM, including a juvenile diabetic, took two (2) grams of MP in water two (2) times per day for three (3) months without any other lifestyle change. The average decrease of HbA1c was one percent (1%). (The group average HbA1c diminished from 7.5% to 6.5% during the course of three (3) months of treatment.)

[2] = tested on: pancreatic rat islet cells; assay: MP instilled into pancreatic rat islet cells; insulin manufacture; type: cell-based; conditions: pancreatic rat islet cells (animal model), several studies
From the text: The methyl pyruvate molecule and certain of these molecular analogues are lipophilic antisense-like permeants, each of which holds onto its own membrane penetrability as well as acting collectively to produce a timed release delivery within the inner mitochondria. The combinational synergy can be different than each effect individually. […] This up regulation is key for enhanced utilization and regulation of glucose transport. MP closes potassium channels and opens calcium channels (via aquaporin generation) allowing a more favorable cellular milieu (increases cytosolic pH) that increases CAC productivity via our delivered MP (as pyruvate), as well as the now utilizable glucose. The use of MP and/or EP as energy molecules allows gene silenced and disabled near-apoptotic cells to proceed logically/genomically to a more idealized homeostatic state for the organism. The invention represents a method for genomic self-regulation of HbA1c.
MP instilled into pancreatic rat islet cells enable upregulation of insulin manufacture six-fold in several studies. The measured Jurkat current is countered and neutralized by MP's proton impedance enhancing its later provocation in increased insulin manufacture.

Row | SMILES | safety in human volunteers [1] | average decrease of HbA1c (HbA1c; 2 grams of MP in water 2 times per day for 3 months, no other lifestyle change) [%] | group average HbA1c after treatment (HbA1c; after 3 months of 2 grams of MP in water 2 times per day) [%] | group average HbA1c before treatment (HbA1c; start of treatment (baseline)) [%] | upregulation of insulin manufacture [2]
1 | CCOC(=O)C(C)=O [EP, ethyl pyruvate] | safe |  |  |  | 
2 | COC(=O)C(C)=O [MP, methyl pyruvate] | safe | 1 | 6.5 | 7.5 | six-fold

— patent US9265741B2, “Molecules to perfect HbA1c levels” (Neville Pharmaceutical, Inc., priority 2011, dated 2016)
